Experimental data from patent publication US9598460B2 (UNIVERSITY OF NOTRE DAME DU LAC, priority 2011, dated 2017).

Columns and labels:
[1] = molecular target: nucleotide binding site of three different antibodies; test: Sandwich ELISA, summary over three antibodies
Procedure: (§1) FIG. 2B illustrates a sandwich ELISA, in accordance with various embodiments;
(§2) HRP-streptavidin was used to bind the biotin, and a fluorescent substrate was used to quantify the amount of indole-3-butyric acid that was present on the surface.
Thus, the monovalent Kd values for the indole binding to the nucleotide binding site of three different antibodies ranged between 1-7 μM, showing a 7- to 50-fold enhancement in binding affinity over adenine.

[2] = molecular target: nucleotide binding site of chimeric human/mouse Rituximab; test: Sandwich ELISA binding of biotin-linked indole-3-butyric acid to antigen-captured antibody; details: fit of normalized fluorescent intensity, read-out: Kd (binding affinity)
Excerpt: as §1, §2

[3] = molecular target: nucleotide binding site of rat anti-DNP antibody; test: as above; details: fit of normalized fluorescent intensity, read-out: Kd (binding affinity)
Excerpt: as §1, §2

[4] = molecular target: nucleotide binding site of mouse anti-FITC antibody; test: as above; details: fit of normalized fluorescent intensity, read-out: Kd (binding affinity)
Excerpt: as §1, §2

Question: How did the Kd ([1]; range over three different antibodies, read-out: monovalent Kd values) turn out when `O=C(O)CCCc1c[nH]c2ccccc12` [indole-3-butyric acid] was run?
Answer: The Kd was 1 to 7 µM.

Question: And the “enhancement in binding affinity over adenine” value ([1]; relative to adenine)?
Answer: Its value is 7- to 50 fold.

Question: And the Kd [2]?
Answer: The Kd was 1.7 µM.

Question: And the Kd [3]?
Answer: Its Kd is 1.27 µM.

Question: What about the Kd [4] of the same molecule?
Answer: The Kd was 6.41 µM.
